Source: patent publication US10881110B2, “Herbicidal compositions comprising isoxazolo[5,4-b]pyridines” (BASF SE, priority 2014, dated 2021)
“And” between values parts separate entries of the source, which are not always exact repeats. Equal entries are not always repeated. Where two headings read alike, the source gives them in different places.

Key:
ALOMY = assay: greenhouse post-emergence herbicidal test; format: in vivo, Alopecurus myosuroides; parameters: key to herbicidal activity against ALOMY found: rating on a scale from 0 to 100; details: post emergence
In short: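 Plants were grown in loamy sand (approx. 4.6% humus, 69.9% sand) to 1–15 cm and sprayed post-emergence with actives suspended or emulsified in water, from a 10% by weight emulsion concentrate. Kept at 10-25° C or 20-35° C by species, damage was scored 0–100 at 20 days.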

VIOAR = assay: greenhouse post-emergence herbicidal test; format: in vivo, Viola arvensis; parameters: key to herbicidal activity against VIOAR found / herbicidal activity against VIOLA found: rating on a scale from 0 to 100; details: post emergence; for pest or weed control at 62.5 g/ha / pest or weed control at 125 g/ha: Viola arvensis, post-emergence, read-out: herbicidal activity against VIOAR found
In short: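 Post-emergence greenhouse test: plants in loamy sand, sprayed at 1–15 cm height with aqueous spray liquor from 10% emulsion concentrates, kept at 10-25 °C or 20-35 °C by species. Damage scored 0–100 (100 = complete destruction), usually 20 days after treatment. Expected additive effect E from Colby: E=X+Y−(X·Y/100).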

[1] = I.1 62.5 g/ha, B.89 12.5 g/ha a.i.
[2] = g/ha a.i.: I.1 62.5, B.52 2.5, mixture 62.5+2.5
[3] = g/ha a.i.: I.1 125, B.52 2.5, mixture 125+2.5

O=C(O)c1cc(C2CC2)nc2onc(C3CC3)c12 [I.1]
25: herbicidal activity against ALOMY found (ALOMY; g/ha a.i.: I.1 31.25, B.52 2.5, mixture 31.25+2.5) | herbicidal activity against ALOMY found (ALOMY; g/ha a.i.: I.1 62.5, B.20 4, mixture 62.5+4) | herbicidal activity against ALOMY found (ALOMY; [2]) | herbicidal activity against VIOAR found (VIOAR; [1])
25%: pest or weed control at 125 g/ha (ALOMY; Alopecurus myosuroides, post-emergence, 480 h, single active, 125 g/ha a.i., read-out: herbicidal activity against ALOMY found)
20: herbicidal activity against VIOLA found (VIOAR; single active, 62.5 g/ha a.i.)
30: herbicidal activity against ALOMY found (ALOMY; g/ha a.i.: I.1 125, B.20 2, mixture 125+2) | herbicidal activity against ALOMY found (ALOMY; g/ha a.i.: I.1 125, B.20 4, mixture 125+4) | herbicidal activity against ALOMY found (ALOMY; g/ha a.i.: I.1 125, B.24 1, mixture 125+1) | herbicidal activity against ALOMY found (ALOMY; g/ha a.i.: I.1 125, B.24 2, mixture 125+2) | herbicidal activity against ALOMY found (ALOMY; [3]) | herbicidal activity against ALOMY found (ALOMY; g/ha a.i.: I.1 125, B.63 0.5, mixture 125+0.5) | herbicidal activity against VIOAR found (VIOAR; application rate a.i.: I.1 62.5 g/ha, B.100 (isoxaflutole) 12.5 g/ha, alone or as mixture (composition 1.100)) | herbicidal activity against VIOLA found (VIOAR; single active, 125 g/ha a.i.)
20 and 25: herbicidal activity against ALOMY found (ALOMY; applied alone at 125 g/ha a.i.)
0%: pest or weed control at 31.25 g/ha (ALOMY; Alopecurus myosuroides, post-emergence, 480 h, single active, 31.25 g/ha a.i., read-out: herbicidal activity against ALOMY found) | pest or weed control at 62.5 g/ha (ALOMY; Alopecurus myosuroides, post-emergence, 480 h, single active, 62.5 g/ha a.i., read-out: herbicidal activity against ALOMY found) | herbicidal activity against ALOMY found (ALOMY; a.i. g/ha: I.1 6.9, B.67 62.5, 20 days after treatment) | herbicidal activity against ALOMY found (ALOMY; a.i. g/ha: I.1 20.8, B.67 62.5, 20 days after treatment) | herbicidal activity against ALOMY found (ALOMY; a.i. g/ha: I.1 62.5, B.67 62.5, 20 days after treatment) | pest or weed control at 62.5 g/ha (VIOAR; 62.5 g/ha a.i.)
45: herbicidal activity against ALOMY found (ALOMY; application rate a.i.: I.1 250 g/ha, B.193 15 g/ha, alone or as mixture (composition 1.193))
40: herbicidal activity against VIOAR found (VIOAR; application rate a.i.: I.1 31.25 g/ha, B.84 (paraquat-dichloride) 17.5 g/ha, alone or as mixture (composition 1.84)) | herbicidal activity against VIOAR found (VIOAR; application rate a.i.: I.1 62.5 g/ha, B.84 (paraquat-dichloride) 17.5 g/ha, alone or as mixture (composition 1.84))
0: herbicidal activity against ALOMY found (ALOMY; I.1 31.25 g/ha, B.95 1 g/ha a.i.) | herbicidal activity against ALOMY found (ALOMY; I.1 62.5 g/ha, B.88 1 g/ha a.i.) | herbicidal activity against ALOMY found (ALOMY; I.1 62.5 g/ha, B.88 2 g/ha a.i.) | herbicidal activity against ALOMY found (ALOMY; [1]) | herbicidal activity against ALOMY found (ALOMY; I.1 62.5 g/ha, B.95 1 g/ha a.i.) | herbicidal activity against ALOMY found (ALOMY; applied alone at 31.25 g/ha a.i.) | herbicidal activity against VIOAR found (VIOAR; 6 days after treatment, g/ha a.i.: I.1 31.25, B.96 35, mixture 31.25+35) | herbicidal activity against VIOAR found (VIOAR; 6 days after treatment, g/ha a.i.: I.1 31.25, B.96 70, mixture 31.25+70) | herbicidal activity against VIOAR found (VIOAR; 6 days after treatment, g/ha a.i.: I.1 31.25, B.96 140, mixture 31.25+140) | herbicidal activity against VIOAR found (VIOAR; 6 days after treatment, g/ha a.i.: I.1 31.25, naptalam 200, mixture 31.25+200) | herbicidal activity against VIOAR found (VIOAR; 6 days after treatment, g/ha a.i.: I.1 62.5, B.96 35, mixture 62.5+35) | herbicidal activity against VIOAR found (VIOAR; 6 days after treatment, g/ha a.i.: I.1 62.5, B.96 70, mixture 62.5+70) | herbicidal activity against VIOAR found (VIOAR; 6 days after treatment, g/ha a.i.: I.1 62.5, B.96 140, mixture 62.5+140) | herbicidal activity against VIOAR found (VIOAR; 6 days after treatment, g/ha a.i.: I.1 62.5, naptalam 100, mixture 62.5+100) | herbicidal activity against VIOAR found (VIOAR; 6 days after treatment, g/ha a.i.: I.1 62.5, naptalam 200, mixture 62.5+200) | herbicidal activity against VIOAR found (VIOAR; application rate a.i.: I.1 62.5 g/ha, B.30 (imazamox) 3.75 g/ha, alone or as mixture (composition 1.030)) | herbicidal activity against VIOAR found (VIOAR; [2]) | herbicidal activity against VIOAR found (VIOAR; g/ha a.i.: I.1 62.5, B.63 0.5, mixture 62.5+0.5) | herbicidal activity against VIOAR found (VIOAR; [3]) | herbicidal activity against VIOAR found (VIOAR; g/ha a.i.: I.1 125, B.52 5, mixture 125+5) | herbicidal activity against VIOAR found (VIOAR; g/ha a.i.: I.1 125, B.63 1, mixture 125+1) | herbicidal activity against VIOLA found (VIOAR; single active, 15.625 g/ha a.i.)
60 and 80: herbicidal activity against VIOAR found (VIOAR; applied alone at 125 g/ha a.i.)
90%: pest or weed control at 125 g/ha (VIOAR; 125 g/ha a.i.)
30%: pest or weed control at 62.5 g/ha (VIOAR; I.1 alone 62.5 g/ha a.i.) | pest or weed control at 125 g/ha (VIOAR; single active, 125 g/ha a.i.)
20%: pest or weed control at 62.5 g/ha (VIOAR; single active, 62.5 g/ha a.i.)
